Source: patent US10624887B2, “Compositions of (-)-17-(cyclobutylmethyl)morphinan-3,14,-diol” (priority 2010, dated 2020)
Entries after “also recorded” stand apart in the source; their conditions may differ.

Columns and labels:
[1] = oral; dosage form that models extended release
[2] = Tail flick test, intra-gastric, intra-ileal and intra-colonic butorphanol; assay type: in vivo
Source text: FIG. 13: Time-effect curves depicting antinociceptive effect of intra-gastric, intra-ileal and intra-colonic butorphanol in the tail flick test. The percent maximum possible effect (% MPE) is plotted versus time.
FIG. 14: Time-effect curves depicting antinociceptive effect of intra-gastric, intra-ileal and intra-colonic butorphanol in the tail flick test. The percent maximum possible effect (% MPE) is plotted versus time.

[3] = system: paclitaxel induced painful neuropathy; test: Paclitaxel induced painful neuropathy, mechanical allodynia (von Frey filaments); assay type: in vivo, Wistar rats; conditions: paclitaxel neuropathic rats
Source text: (§1) The aim of this study was to evaluate the effect of oral administration of butorphanol in rats with paclitaxel induced painful neuropathy. The primary measurements were made mechanical and thermal allodynia designed to detect effects of the treatment(s) on neuropathic pain.
(§2) Wistar rats weighing 250±20 g were maintained on standard laboratory diet and having free access to tap water ad lib were employed in the present study. They were housed in the animal house and were exposed to 12 hr cycle of light and dark. The experiments were conducted in a semi-sound proof laboratory. Care of the animals was in accordance with guidelines for experimentation on animals.
Rats were injected on five alternate days (day 4, 6, 8, 10 & 12) with paclitaxel (2 mg/kg i.p.) using an injection volume of 2 ml/kg. Thus, the cumulative dose of paclitaxel was computed to be 10 mg/kg. […]
Mechano-allodynia was assessed using von Frey filaments. […] Both hind paws were tested for allodynia and the average of the two was recorded as data. Results were expressed in grams and determined before and 30 and 60 min after the administration of the test drugs.
(§3) The anti-nociceptive effect was plotted assessed having time (relative to dosing time point) on the x-axis and percent maximum possible effect (% MPE) on the y-axis. The results were expressed as mean±standard error of means (S.E.M.). […]

[4] = system: streptozotocin (STZ) induced diabetes neuropathy; test: Streptozotocin induced diabetic neuropathy, mechanical allodynia (von Frey filaments); assay type: in vivo, Wistar rats; conditions: STZ diabetic neuropathic rats
Description: as §1, with “streptozotocin (STZ)” for “paclitaxel”, “diabetes” for “painful”, “neuropathy. A single injection of streptozotocin (STZ) (40-70 mg/kg, i.p.) was used to induce diabetes in rats.” for “neuropathy.”
as §2
The STZ-induced diabetes model was adapted from Arison et al (1967). […]
Mechano-allodynia was assessed using von Frey filaments. […] Both hind paws were tested for allodynia and the average of the two was recorded. Results were expressed in grams and determined before and 30 and 60 min after the administration of the test drugs.
as §3

With `Oc1ccc2c(c1)[C@@]13CCCC[C@@]1(O)[C@@H](C2)N(CC1CCC1)CC3` [butorphanol, (−)17-(Cyclobutylmethyl)morphinan-3,14-diol] the therapeutic effect [1] was “robust therapeutic effects”, the “antinociceptive effect, position of the % MPE time-effect curve” value ([2]; intra-colonic) was “Top curve” and the “antinociceptive effect, position of the % MPE time-effect curve” value ([2]; intra-gastric) was “bottom curve”. For the same compound, the “antinociceptive effect, position of the % MPE time-effect curve” value ([2]; intra-ileal) was “second from top curve”, the “time of peak effect post-administration (mechanical allodynia)” value ([3]; oral) was 30 min and the mechanical withdrawal threshold ([3]; p.o. 0.01, 0.03, 0.1, 0.3 mg/kg, FIG. 17) was “dose dependent increase; also recorded: significant increase”. For the same compound, the mechanical withdrawal threshold ([4]; oral 1, 3, 10, 30 mg/kg, FIG. 19) was “dose dependent increase; also recorded: significant increase” and the “time of peak effect post-administration (mechanical allodynia)” value ([4]; oral) was 30 min.
